Source: ChEMBL document CHEMBL1121781, “Potential antitumor agents. 34. Quantitative relationships between DNA binding and molecular structure for 9-anilinoacridines substituted in the anilino ring” (J Med Chem, 1981)
Calls of active or inactive are those of the source. The rule behind the calls is not given here.

Experiments:
Nucleic Acid [1] = system: Nucleic Acid
Description: Association constant for binding to poly [d(A-T)]

Nucleic Acid [2] = system: Nucleic Acid; remark: listed apart in the source
Description: Association constant for binding to poly [d(G-C)]

Calf thymus DNA = conditions: Bos taurus
Description: Inhibitory concentration against ethidium binding to DNA

Description for Mus musculus: Maximum percent increase in life span of mice
Description for physchem: Ionisation constant (pKa)

Log K (Nucleic Acid [1]) | Log K (Nucleic Acid [2]) | pKa (physchem) | SMILES | C50 (Calf thymus DNA) | ILS (Mus musculus)
5.82 | 5.85 | 6.02 | CNS(=O)(=O)c1ccc(Nc2c3ccccc3nc3ccccc23)cc1 | 16 µM | inactive
5.6 | 5.43 | 6.32 | c1ccc(Nc2c3ccccc3nc3ccccc23)nc1 | 42 µM | inactive
5.96 | 5.92 | – | NS(=O)(=O)c1ccc(Nc2c3ccccc3nc3ccccc23)cc1 | 14 µM | inactive
6.11 | 6.01 | 7.61 | CNc1cccc(Nc2c3ccccc3nc3ccccc23)c1 | 7 µM | inactive
5.37 | 5.43 | – | NC(=O)c1ccccc1Nc1c2ccccc2nc2ccccc12 | 38 µM | inactive
5.35 | 5.32 | 6.41 | Brc1ccccc1Nc1c2ccccc2nc2ccccc12 | 58 µM | inactive
5.08 | 4.92 | 7.64 | CC(C)c1ccccc1Nc1c2ccccc2nc2ccccc12 | 142 µM | inactive
6.45 | 6.39 | 8.24 | CCCCNc1ccc(Nc2c3ccccc3nc3ccccc23)cc1 | 1.6 µM | inactive
– | – | 7.51 | CC(=O)Nc1ccc(Nc2c3ccccc3nc3ccccc23)cc1 | 4.7 µM | –
6.55 | 6.54 | 8.42 | CNc1ccc(Nc2c3ccccc3nc3ccccc23)cc1 | 1.2 µM | –
5.86 | 5.85 | 7.46 | c1ccc(Nc2c3ccccc3nc3ccccc23)cc1 | 16 µM | inactive
6.3 | 6.26 | 7.15 | Nc1ccc(S(=O)(=O)Nc2ccc(Nc3c4ccccc4nc4ccccc34)cc2)cc1 | 4.4 µM | –
6.43 | 6.38 | 8.24 | CCCCCCNc1ccc(Nc2c3ccccc3nc3ccccc23)cc1 | 1.6 µM | inactive
6.09 | 5.9 | 7.52 | Cc1cccc(Nc2c3ccccc3nc3ccccc23)c1 | 15 µM | inactive
6.51 | 6.29 | 8.46 | CN(C)c1ccc(Nc2c3ccccc3nc3ccccc23)cc1 | 2 µM | –
6.19 | 6.13 | 6.9 | Ic1ccc(Nc2c3ccccc3nc3ccccc23)cc1 | 8.2 µM | inactive
– | 6.23 | 7.64 | COC(=O)Nc1ccc(Nc2c3ccccc3nc3ccccc23)cc1 | 5.3 µM | –
6.31 | 6.23 | 8.36 | Nc1ccc(Nc2c3ccccc3nc3ccccc23)cc1 | 2.3 µM | –
6.12 | 6.08 | 7.94 | COc1ccc(Nc2c3ccccc3nc3ccccc23)cc1 | 7.4 µM | inactive
5.9 | 5.96 | 7.16 | CC(=O)Nc1cccc(Nc2c3ccccc3nc3ccccc23)c1 | 13 µM | –
5.86 | 5.88 | 5.81 | CS(=O)(=O)c1ccc(Nc2c3ccccc3nc3ccccc23)cc1 | 14 µM | inactive
6.44 | 6.36 | 8.3 | CCNc1ccc(Nc2c3ccccc3nc3ccccc23)cc1 | 1.7 µM | –
5.7 | 5.86 | 5.93 | N#Cc1ccc(Nc2c3ccccc3nc3ccccc23)cc1 | 15 µM | inactive
5.84 | 5.46 | 7.24 | CC(=O)Nc1ccccc1Nc1c2ccccc2nc2ccccc12 | 42 µM | inactive
– | – | 7.77 | CNC(=O)Nc1ccc(Nc2c3ccccc3nc3ccccc23)cc1 | 4.1 µM | –
5.99 | 5.99 | 7.72 | Cc1ccc(Nc2c3ccccc3nc3ccccc23)cc1 | 10 µM | –
5.76 | 5.76 | 7.87 | Nc1ccccc1Nc1c2ccccc2nc2ccccc12 | 13 µM | inactive
6.02 | 5.98 | 7 | Brc1ccc(Nc2c3ccccc3nc3ccccc23)cc1 | 11 µM | inactive
5.47 | 5.41 | 6.3 | COC(=O)c1ccccc1Nc1c2ccccc2nc2ccccc12 | 40 µM | inactive
5.67 | 5.77 | – | NS(=O)(=O)c1ccccc1Nc1c2ccccc2nc2ccccc12 | 18 µM | inactive
